Laboratory results as given in article PMC5991599, “Anti‐tumor efficacy of a novel CLK inhibitor via targeting RNA splicing and MYC‐dependent vulnerability” (EMBO Molecular Medicine, 2018).

Legend:
CLK2 = CLK2 (Homo sapiens, UniProt P49760); assay: Enzymatic assay; assay type: biochemical; details: read-out: IC50 (nmol/L) CLK2
Excerpt: (§1) Appendix Supplemental Methods

CLK3 = CLK3 (Homo sapiens, UniProt P49761); assay: Enzymatic assay; assay type: biochemical; details: read-out: IC50 (nmol/L) CLK3
CLK3, sequence (P49761 whole entry): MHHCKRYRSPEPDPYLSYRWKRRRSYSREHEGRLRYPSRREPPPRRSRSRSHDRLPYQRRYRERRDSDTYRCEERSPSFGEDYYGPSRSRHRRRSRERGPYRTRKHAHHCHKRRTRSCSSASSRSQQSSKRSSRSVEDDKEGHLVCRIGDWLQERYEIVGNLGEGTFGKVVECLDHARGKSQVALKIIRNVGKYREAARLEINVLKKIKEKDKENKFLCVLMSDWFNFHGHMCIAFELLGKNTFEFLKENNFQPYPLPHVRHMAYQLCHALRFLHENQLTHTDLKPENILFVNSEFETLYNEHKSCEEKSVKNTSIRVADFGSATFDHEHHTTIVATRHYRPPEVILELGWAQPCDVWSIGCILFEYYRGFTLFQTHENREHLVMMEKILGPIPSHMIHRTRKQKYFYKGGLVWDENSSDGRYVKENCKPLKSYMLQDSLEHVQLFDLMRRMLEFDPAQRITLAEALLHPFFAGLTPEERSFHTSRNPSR
Excerpt: as §1

DYRK1B = DYRK1B (Homo sapiens, UniProt Q9Y463); assay: Enzymatic assay; assay type: biochemical; details: read-out: IC50 (nmol/L) DYRK1B
DYRK1B, sequence (Q9Y463 whole entry): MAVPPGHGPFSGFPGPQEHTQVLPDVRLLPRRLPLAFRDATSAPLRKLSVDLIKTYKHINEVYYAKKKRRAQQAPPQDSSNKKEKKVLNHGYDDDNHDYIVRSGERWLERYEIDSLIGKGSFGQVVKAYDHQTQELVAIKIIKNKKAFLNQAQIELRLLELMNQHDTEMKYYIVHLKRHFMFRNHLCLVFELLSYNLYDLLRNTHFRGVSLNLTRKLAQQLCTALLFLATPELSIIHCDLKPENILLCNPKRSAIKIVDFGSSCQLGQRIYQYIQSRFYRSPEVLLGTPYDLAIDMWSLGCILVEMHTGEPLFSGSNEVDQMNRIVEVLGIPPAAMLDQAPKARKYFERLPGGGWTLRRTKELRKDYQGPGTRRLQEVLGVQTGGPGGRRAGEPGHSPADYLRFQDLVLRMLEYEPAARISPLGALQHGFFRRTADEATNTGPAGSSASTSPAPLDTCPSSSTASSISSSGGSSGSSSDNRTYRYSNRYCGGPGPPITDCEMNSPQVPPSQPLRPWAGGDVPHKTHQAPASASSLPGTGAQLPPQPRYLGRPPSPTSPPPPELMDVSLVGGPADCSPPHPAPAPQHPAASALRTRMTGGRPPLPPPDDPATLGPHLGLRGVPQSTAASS
Excerpt: as §1

786-O = assay: Panel of growth inhibition assays (OncoPanel 240); assay type: cell-based; details: Homo sapiens, 786-0; 72 h; kidney cancer; read-out: IC50 (nmol/L) Oncopanel
Protocol: (§2) The KINOMEScan‐based kinase selectivity assay was performed at the DiscoverX Corporation (Fremont, CA, USA). The panel of growth inhibition assay and subsequent bioinformatics analysis (Fig EV1) were performed at Eurofins Inc. (St. Charles, MO, USA), using OncoPanel 240 or 60. Details of the procedures of cell proliferation assay, caspase‐3/7 activity assay, immunoblotting, and immunohistochemistry are described in Appendix Supplementary Methods.
(§3) Panel of growth inhibition assay and subsequence bioinformatics analysis (at […]
(§4) A growth inhibition assay panel and subsequent bioinformatics analysis were performed at Eurofins Inc. (MO, U.S.A.) by utilizing Oncopanel240 or 60.
(§5) According to the study reports from Eurofins Inc., cells were seeded into 384 well plates at a single cell density in standardized media. After 24 hours, the test compounds were added and the plate was incubated continuously for 72 hours. Cells were then fixed and stained to visualize nuclei. The number of nuclei was counted and normalized.
(§6) Cellular response parameters were calculated using nonlinear regression to a sigmoidal single-site dose response model and the IC50 value of each cell line was calculated.
(§7) Genomic features were binned into six distinct categories, each of which was considered to be a “biomarker-positive” grouping: Mutated (non-synonymous, coding, and non-coding mutations), Amplified, Deleted, Overexpressed, Mutated or amplified (gain-of-function), and Mutated or deleted (loss-of-function). Two orthogonal significance tests were performed on each genomic feature as follows.
(§8) Student’s t-test: For each genomic feature within each of the six above categories, IC50 cell count values for biomarker-positive and biomarker-negative groups were […]

CCRF-CEM = assay: Panel of growth inhibition assays (OncoPanel 240); assay type: cell-based; details: Homo sapiens, 72 h, leukemia, read-out: IC50 (nmol/L) Cell count
Protocol: as §2, §3, §4, §5, §6, §7, §8

COLO320HSR = assay: Panel of growth inhibition assays (OncoPanel 240); assay type: cell-based; details: Homo sapiens, COLO-320-HSR; 72 h; colorectal cancer; read-out: IC50 (nmol/L) Oncopanel
Protocol: as §2, §3, §4, §5, §6, §7, §8

DAUDI = assay: Panel of growth inhibition assays (OncoPanel 240); assay type: cell-based; details: Homo sapiens, 72 h, lymphoma, read-out: IC50 (Oncopanel, cell count)
Protocol: as §2, §3, §4, §5, §6, §7, §8

DB = assay: Panel of growth inhibition assays (OncoPanel 240); assay type: cell-based; details: Homo sapiens, 72 h, lymphoma, read-out: IC50 (Oncopanel, cell count)
Protocol: as §2, §3, §4, §5, §6, §7, §8

DOHH2 = assay: Panel of growth inhibition assays (OncoPanel 240); assay type: cell-based; details: Homo sapiens, DOHH-2; 72 h; lymphoma; read-out: IC50 (Oncopanel, cell count)
Protocol: as §2, §3, §4, §5, §6, §7, §8

EM2 = assay: Panel of growth inhibition assays (OncoPanel 240); assay type: cell-based; details: Homo sapiens, EM-2; 72 h; leukemia; read-out: IC50 (Oncopanel, cell count)
Protocol: as §2, §3, §4, §5, §6, §7, §8

HEL9217 = assay: Panel of growth inhibition assays (OncoPanel 240); assay type: cell-based; details: Homo sapiens, HEL 92.1.7; 72 h; leukemia; read-out: IC50 (Oncopanel, cell count)
Protocol: as §2, §3, §4, §5, §6, §7, §8

K562 = assay: Panel of growth inhibition assays (OncoPanel 240); assay type: cell-based; details: Homo sapiens, 72 h, leukemia, read-out: IC50 (Oncopanel, cell count)
Protocol: as §2, §3, §4, §5, §6, §7, §8

L428 = assay: Panel of growth inhibition assays (OncoPanel 240); assay type: cell-based; details: Homo sapiens, L-428; 72 h; lymphoma; read-out: IC50 (Oncopanel, cell count)
Protocol: as §2, §3, §4, §5, §6, §7, §8

MDA-MB-468 = assay: Panel of growth inhibition assays (OncoPanel 240); assay type: cell-based; details: Homo sapiens, 72 h, breast cancer, read-out: IC50 (nmol/L) Oncopanel
Protocol: as §2, §3, §4, §5, §6, §7, §8

MEG01 = assay: Panel of growth inhibition assays (OncoPanel 240); assay type: cell-based; details: Homo sapiens, MEG-01; 72 h; leukemia; read-out: IC50 (Oncopanel, cell count)
Protocol: as §2, §3, §4, §5, §6, §7, §8

MOLT16 = assay: Panel of growth inhibition assays (OncoPanel 240); assay type: cell-based; details: Homo sapiens, MOLT-16; 72 h; leukemia; read-out: IC50 (Oncopanel, cell count)
Protocol: as §2, §3, §4, §5, §6, §7, §8

MV-4-11 = assay: Panel of growth inhibition assays (OncoPanel 240); assay type: cell-based; details: Homo sapiens, MV4-11; 72 h; leukemia; read-out: IC50 (Oncopanel, cell count)
Protocol: as §2, §3, §4, §5, §6, §7, §8

NALM6 = assay: Panel of growth inhibition assays (OncoPanel 240); assay type: cell-based; details: Homo sapiens, NALM-6; 72 h; leukemia; read-out: IC50 (Oncopanel, cell count)
Protocol: as §2, §3, §4, §5, §6, §7, §8

RAJI = assay: Panel of growth inhibition assays (OncoPanel 240); assay type: cell-based; details: Homo sapiens, 72 h, lymphoma, read-out: IC50 (Oncopanel, cell count)
Protocol: as §2, §3, §4, §5, §6, §7, §8

RPMI8226 = assay: Panel of growth inhibition assays (OncoPanel 240); assay type: cell-based; details: Homo sapiens, RPMI-8226; 72 h; myeloma; read-out: IC50 (Oncopanel, cell count)
Protocol: as §2, §3, §4, §5, §6, §7, §8

THP1 = assay: Panel of growth inhibition assays (OncoPanel 240); assay type: cell-based; details: Homo sapiens, THP-1; 72 h; leukemia; read-out: IC50 (Oncopanel, cell count)
Protocol: as §2, §3, §4, §5, §6, §7, §8

U266B1 = assay: Panel of growth inhibition assays (OncoPanel 240); assay type: cell-based; details: 72 h; myeloma; read-out: IC50 (Oncopanel, cell count)
Protocol: as §2, §3, §4, §5, §6, §7, §8

MDA-MB-468 xenograft = assay: Efficacy study in MDA-MB-468 xenograft model; assay type: in vivo, Balb/c nude mice; details: 50 mg/kg oral, twice daily on 2 days per week
Protocol: When xenografted tumors grew to a sufficient volume, the tumor diameter was measured and its volume was calculated as follows:
(§9) Tumor volume=long diameter×short diameter×short diameter×(1/2)
(§10) Mice having a tumor of size approximately 200 mm^3 were used in efficacy or in vivo pharmacodynamics studies. T‐025 was dissolved in 0.5% methylcellulose solution. For the efficacy study, after randomized grouping, mice were treated with T‐025 twice daily once or twice weekly for 2 or 3 weeks. The mouse tumor volume and body weight were measured every 2–3 days.

NCI-H1048 xenografts = assay: Efficacy study in NCI-H1048 xenograft model; assay type: in vivo, Balb/c nude mice; details: 50 mg/kg, twice weekly regimen
Protocol: MDA‐MB‐468 (5 × 10^6), NCI‐H1048 (5 × 10^6), or MV‐4‐11 (2 × 10^6) cells in Matrigel were subcutaneously inoculated into the left flanks of Balb/c nude mice (7‐ to 8‐week‐old females). When xenografted tumors grew to a sufficient volume, the tumor diameter was measured and its volume was calculated as follows:
as §9, §10

other kinases = assay: KINOMEScan-based kinase selectivity assay, kinases other than CLK/DYRK1; assay type: binding
Protocol: as §2

CLK2, sequence (P49760 whole entry): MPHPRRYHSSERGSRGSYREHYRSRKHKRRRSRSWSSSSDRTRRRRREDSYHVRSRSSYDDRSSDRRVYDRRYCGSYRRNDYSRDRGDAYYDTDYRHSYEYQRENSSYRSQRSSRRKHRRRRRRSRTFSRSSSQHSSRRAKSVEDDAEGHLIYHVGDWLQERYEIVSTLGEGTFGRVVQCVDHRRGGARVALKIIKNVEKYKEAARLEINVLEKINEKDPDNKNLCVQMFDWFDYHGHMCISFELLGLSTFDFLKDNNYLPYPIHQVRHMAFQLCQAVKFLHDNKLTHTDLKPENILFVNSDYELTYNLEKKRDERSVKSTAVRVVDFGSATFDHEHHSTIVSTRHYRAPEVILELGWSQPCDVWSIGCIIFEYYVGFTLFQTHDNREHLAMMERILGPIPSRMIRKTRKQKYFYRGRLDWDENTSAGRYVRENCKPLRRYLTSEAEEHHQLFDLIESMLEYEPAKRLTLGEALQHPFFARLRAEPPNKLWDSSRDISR

Structure (SMILES): CNc1nc(NCc2ncccn2)c2c(-c3ccc4ncccc4c3)c[nH]c2n1 [T-025, N ^2‐methyl‐N ^4‐[pyrimidin‐2‐ylmethyl]‐5‐[quinolin‐6‐yl]‐7H‐pyrrolo[2,3‐d]pyrimidine‐2,4‐diamine]
- IC50 (CLK2): 1 nmol/L
- IC50 (CLK3): 14 nmol/L
- IC50 (DYRK1B): 1.5 nmol/L
- IC50 (786-O): 239 nmol/L
- IC50 (CCRF-CEM): 45.9 nmol/L
- IC50 (COLO320HSR): 30.1 nmol/L
- IC50 (DAUDI): 52.5 nM
- IC50 (DB): 43.3 nM
- IC50 (DOHH2): 39.5 nM
- IC50 (EM2): 104 nM
- IC50 (HEL9217): 38.3 nM
- IC50 (K562): 129 nM
- IC50 (L428): 116 nM
- IC50 (MDA-MB-468): 47.1 nmol/L
- IC50 (MEG01): 305 nM
- IC50 (MOLT16): 20.6 nM
- IC50 (MV-4-11): 30.1 nM
- IC50 (NALM6): 52.6 nM
- IC50 (RAJI): 84.7 nM
- IC50 (RPMI8226): 99.3 nM
- IC50 (THP1): 228 nM
- IC50 (U266B1): 35.1 nM
- nadir body weight loss (MDA-MB-468 xenograft; 3 weeks, near the maximum tolerated dose): < 10%
- anti-tumor effect, tumor volume (MDA-MB-468 xenograft; end of 3-week treatment cycle): tumor volumes had shrunk relative to the initial volumes
- anti-tumor efficacy, tumor volume (NCI-H1048 xenografts): exhibited in vivo anti‐tumor efficacy
- body weight loss (NCI-H1048 xenografts): no significant body weight loss
- selectivity for CLK/DYRK1 over other kinases (other kinases): > 300 fold
- Kd (other kinases; no other kinase had Kd < 30, read-out: Kd of other kinases outside of CLK and DYRK1 family): ≥ 30 nM
